Earlier results in patent US20130331575A1, “Method for resolution of 4-((1R,3S)-6-chloro-3-phenyl-indan-1-yl)-1,2,2-trimethyl-piperazine and 1-((1R,3S)-6-chloro-3-phenyl-indan-1-yl)-3,3-dimethyl-piperazine” (priority 2011, published 2013).

Assays:
D2 = D2 (Homo sapiens, UniProt P14416); conditions: in vitro
D1 and D2 = conditions: in vivo
5-HT2 = 5-HT2 (Homo sapiens, UniProt P28223)
D1 = D1 (Homo sapiens, UniProt P21728); conditions: in vitro
D1, sequence (P21728 whole entry): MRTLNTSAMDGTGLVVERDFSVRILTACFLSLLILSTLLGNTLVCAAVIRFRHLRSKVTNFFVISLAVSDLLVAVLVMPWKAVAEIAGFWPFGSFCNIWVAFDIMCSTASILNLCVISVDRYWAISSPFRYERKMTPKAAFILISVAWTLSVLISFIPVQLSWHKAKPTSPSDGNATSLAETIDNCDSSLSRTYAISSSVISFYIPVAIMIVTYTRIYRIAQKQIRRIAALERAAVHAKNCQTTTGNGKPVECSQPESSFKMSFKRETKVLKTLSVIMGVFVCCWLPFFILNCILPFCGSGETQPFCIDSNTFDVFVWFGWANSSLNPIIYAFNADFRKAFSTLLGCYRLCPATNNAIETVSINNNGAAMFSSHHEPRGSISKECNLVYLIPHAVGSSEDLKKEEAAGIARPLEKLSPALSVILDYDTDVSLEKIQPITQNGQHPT

D2, sequence (P14416 whole entry): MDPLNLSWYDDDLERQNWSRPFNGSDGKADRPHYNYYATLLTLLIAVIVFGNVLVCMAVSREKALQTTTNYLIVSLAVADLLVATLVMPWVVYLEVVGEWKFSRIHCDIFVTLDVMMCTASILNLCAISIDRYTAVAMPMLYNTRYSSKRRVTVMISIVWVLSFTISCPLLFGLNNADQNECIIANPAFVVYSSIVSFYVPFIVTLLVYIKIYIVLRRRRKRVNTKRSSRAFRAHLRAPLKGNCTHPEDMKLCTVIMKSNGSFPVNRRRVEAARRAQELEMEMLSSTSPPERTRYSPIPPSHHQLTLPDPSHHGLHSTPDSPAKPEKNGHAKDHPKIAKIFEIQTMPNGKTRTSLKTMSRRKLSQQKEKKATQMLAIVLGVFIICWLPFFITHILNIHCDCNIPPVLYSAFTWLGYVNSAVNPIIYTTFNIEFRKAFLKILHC
5-HT2, sequence (P28223 whole entry, species assumed): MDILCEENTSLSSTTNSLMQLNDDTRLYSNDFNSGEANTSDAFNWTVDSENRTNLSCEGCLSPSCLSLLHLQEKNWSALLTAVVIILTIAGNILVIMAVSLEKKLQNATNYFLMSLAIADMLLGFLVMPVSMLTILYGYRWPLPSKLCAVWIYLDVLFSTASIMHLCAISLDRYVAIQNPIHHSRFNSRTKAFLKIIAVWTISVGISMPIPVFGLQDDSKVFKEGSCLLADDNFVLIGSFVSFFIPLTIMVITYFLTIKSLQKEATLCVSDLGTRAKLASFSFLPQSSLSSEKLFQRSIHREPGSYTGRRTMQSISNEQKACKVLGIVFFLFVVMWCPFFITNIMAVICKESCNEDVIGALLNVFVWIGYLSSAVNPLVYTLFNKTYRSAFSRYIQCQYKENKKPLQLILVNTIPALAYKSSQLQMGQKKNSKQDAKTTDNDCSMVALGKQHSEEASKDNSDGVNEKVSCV

For CN1CCN([C@@H]2C[C@@H](c3ccccc3)c3ccc(Cl)cc32)CC1(C)C [Compound (I), 4-((1R,3S)-6-chloro-3-phenyl-indan-1-yl)-1,2,2-trimethyl-piperazine], the D2 antagonist potency (D2) is given as “potent”, the “relative potency as D1 and D2 antagonist” value (D1 and D2) is given as “equipotent as D1 and D2 antagonist” and the 5-HT2 antagonist potency (5-HT2) is given as “potent 5-HT2 antagonist”. The “affinity for α1 adrenoceptors” value (α1 adrenoceptors) was “high affinity”, the D1 antagonist potency (D1) was “potent” and the “D1 versus D2 selectivity” value (D1) was “some D1 selectivity”.
